Source: paper PMC5457628, “Inhibitors of ubiquitin E3 ligase as potential new antimalarial drug leads” (BMC Pharmacology & Toxicology, 2017)
Like-named read-outs stand apart in the source and are kept apart here.

Legend:
[1] = tested on: P. falciparum D6 (CQ-sensitive strain); experiment: Antimalarial SYBR Green I-based fluorescence assay, PfD6; type: cell-based
Method: The medium of the culture was replaced every 48 h, flushed with a gas mixture of 90% N2, 5% CO2 and 5% O2 and incubated at 37 °C.
Only ring stages of the parasite were counted and adjusted to 2% parasitemia with 2% hematocrit. Stock solutions (10 mM) of the test inhibitors were prepared in DMSO. […] The maximum concentrations of E3 ligase inhibitors and CQ used in the assay were 50 μM and 500 nM respectively. The plates were incubated at 37 °C in 5% CO2, 5% O2, and 90% N2 environment for 48, 72, 96 and 120 h. After incubation, SYBR green with RBC lysis buffer was added to each well, and the plates were incubated for 1 h in the dark at room temperature. The standard antimalarial agent, CQ was tested as the positive control, and DMSO was tested as vehicle control. […] The anti-malarial activity (expressed as IC50 values) was determined by the dose-response analysis with XLfit©.

[2] = tested on: P. falciparum W2 (CQ-resistant strain); experiment: Antimalarial SYBR Green I-based fluorescence assay, PfW2; type: cell-based; conditions: Plasmodium falciparum
Method: CQ-sensitive (D6, Sierra Leone) and -resistant (W2, Indochina) strains of P. falciparum cultures were obtained from Malaria Research and Reference Reagent Resource Center (MR4), USA and maintained at 5% hematocrit in complete culture medium (RPMI 1640 supplemented with 60 μg/mL amikacin, 27 mM NaHCO3 and 10% heat-inactivated normal human type A+ serum). The medium of the culture was replaced every 48 h, flushed with a gas mixture of 90% N2, 5% CO2 and 5% O2 and incubated at 37 °C.
CQ-sensitive P. falciparum D6 strain (Pf D6) and CQ-resistant P. falciparum W2 strain (Pf W2) were grown in RPMI 1640 medium supplemented with amikacin (60 μg/mL), NaHCO3 (27 mM) and 10% heat-inactivated normal human type A+ serum. Only ring stages of the parasite were counted and adjusted to 2% parasitemia with 2% hematocrit. Stock solutions (10 mM) of the test inhibitors were prepared in DMSO. The compounds were serially diluted in serum-free RPMI-1640 medium for testing at eight concentrations. The maximum concentrations of E3 ligase inhibitors and CQ used in the assay were 50 μM and 500 nM respectively. The plates were incubated at 37 °C in 5% CO2, 5% O2, and 90% N2 environment for 48, 72, 96 and 120 h. After incubation, SYBR green with RBC lysis buffer was added to each well, and the plates were incubated for 1 h in the dark at room temperature. The standard antimalarial agent, CQ was tested as the positive control, and DMSO was tested as vehicle control. Standard fluorescence was measured Fluostar Galaxy microplate reader (BMG Lab Technologies) at excitation wavelength of 485 nm and emission wavelength of 535 nm. The anti-malarial activity (expressed as IC50 values) was determined by the dose-response analysis with XLfit©.

[3] = In vitro cytotoxicity assay (AlamarBlue) against PMA-transformed THP1 cells; type: cell-based; conditions: human, PMA-transformed non-dividing THP1, mean ± SEM of duplicates, NC = not cytotoxic at highest concentration tested (50 μM inhibitors, 500 nM CQ), read-out: THP1 Cell Cytotoxicity (IC50)
Method: The E3 ligase inhibitors were also tested against Vero cells (African green monkey kidney epithelial cells) and transformed non-dividing human monocytic (THP1) cells. The methods described earlier were used to measure cytotoxicity for Vero and THP1 cells. In brief, four days’ old Vero and THP1 cell cultures were diluted with RPMI medium to 25,000 cells/mL. Vero cells (100 μL per well) were seeded in a clear 96 well culture plate and incubated for 24 h at 37 °C in a 5% CO2 incubator to obtain confluent cells. Phorbol 12-myristate 13-acetate (PMA) (25 ng/mL) was added to THP1 cell culture to transform the cells to adherent macrophages. PMA treated THP1cells were dispensed into clear 96 well culture plates (200 μL/well; 25,000 cells/mL) and incubated at 37 °C in a 5% CO2 incubator for overnight. The test compounds were prepared in DMSO at 10 mM concentration. The compounds were serially diluted in RPMI medium with 2% FBS in the separate daughter plates, for testing at eight concentrations. The cells were washed with culture medium, replaced with the fresh medium and test compounds were added. The maximum concentration of E3 ligase inhibitors and CQ used in these assays were 50 μM and 500 nM respectively. DMSO was tested as vehicle control in these assays. The plates were incubated further in a CO2 incubator at 37 °C for 48 h. After 48 h, 10 μL of AlamarBlue® was added to each well, and the plates were incubated in a CO2 incubator at 37 °C for overnight. […] IC50 values were computed by analyzing dose-response curves with XLfit©.

[4] = tested on: P. falciparum D6 strain (PfD6); experiment: Stage specific imaging analysis: parasitemia and differential stage counts in synchronized PfD6 culture (Giemsa smears); type: cell-based, Plasmodium falciparum; conditions: CQ 50 nM; for effect on parasitemia as compared to vehicle control: HLI 373 5 μM, Nutlin 3 35 μM; for overall parasitemia: synchronized PfD6, ~6% parasitemia at 0 h, JNJ 26854165 5 μM
Method: The stage-specific activity of the lead compounds was tested against Pf D6. […] The culture was synchronized by 5% sorbitol treatment as previously described. The synchronized culture of PfD6, with ~6% parasitemia and >90% of the parasite in ring stage, was used for these assays. Stock solutions (10 mM) of the test inhibitors were prepared in DMSO. […] The effect of the compounds was monitored after every 8 h (0, 8, 16, 24, 32, 40 and 48 h) by preparing thin smears of the infected erythrocytes. The slides were stained with Giemsa, and digital images of the parasite were captured with Nikon Eclipse microscope under bright field using NIS-element imaging software. The images were analyzed for the parasite stages and morphological changes (if any) in the parasite. The levels of parasitemia and differential parasitemia (relative percentage of different parasite stages) counts were also measured. At least one thousand erythrocytes (total- infected & uninfected) were counted from each slide for determination of the level of parasitemia and differential parasite stage counts.

[5] = Plasmodium falciparum, D6, 48 h; read-out: IC90 against PfD6 (concentration almost equivalent to IC90)
[6] = Plasmodium falciparum, D6; 48 h incubation; mean ± SEM of duplicates; NA = not active at highest concentration tested (50 μM inhibitors, 500 nM CQ); read-out: P. falciparum D6 (CQ-sensitive strain) IC50
[7] = Plasmodium falciparum, D6; 72 h incubation; mean ± SEM of duplicates; NA = not active at highest concentration tested (50 μM inhibitors, 500 nM CQ); read-out: P. falciparum D6 (CQ-sensitive strain) IC50
[8] = Plasmodium falciparum, D6; 96 h incubation; mean ± SEM of duplicates; NA = not active at highest concentration tested (50 μM inhibitors, 500 nM CQ); read-out: P. falciparum D6 (CQ-sensitive strain) IC50
[9] = Plasmodium falciparum, D6; 120 h incubation; mean ± SEM of duplicates; NA = not active at highest concentration tested (50 μM inhibitors, 500 nM CQ); read-out: P. falciparum D6 (CQ-sensitive strain) IC50
[10] = W2, 48 h incubation, mean ± SEM of duplicates, NA = not active at highest concentration tested (50 μM inhibitors, 500 nM CQ), read-out: P. falciparum W2 (CQ-resistant strain) IC50
[11] = W2, 72 h incubation, mean ± SEM of duplicates, NA = not active at highest concentration tested (50 μM inhibitors, 500 nM CQ), read-out: P. falciparum W2 (CQ-resistant strain) IC50
[12] = W2, 96 h incubation, mean ± SEM of duplicates, NA = not active at highest concentration tested (50 μM inhibitors, 500 nM CQ), read-out: P. falciparum W2 (CQ-resistant strain) IC50
[13] = W2, 120 h incubation, mean ± SEM of duplicates, NA = not active at highest concentration tested (50 μM inhibitors, 500 nM CQ), read-out: P. falciparum W2 (CQ-resistant strain) IC50
[14] = 40 h post-treatment, vehicle control 6.90
[15] = 48 h post-treatment, vehicle control 5.28%

IC90 [1, 5] | IC50 [1, 6] | IC50 [1, 7] | IC50 [1, 8] | IC50 [1, 9] | IC50 [2, 10] | IC50 [2, 11] | IC50 [2, 12] | IC50 [2, 13] | Structure (SMILES) | IC50 at 48 h [3] | effect on parasitemia as compared to vehicle control ([4]; 40 h post-treatment) | overall parasitemia [4, 14] | overall parasitemia [4, 15] | other results
~35 µM | 12.8 ± 1.34 µM | 19.4 ± 0.34 µM | 15.9 ± 1.24 µM | 20 ± 4.52 µM | 18.6 ± 1.6 µM | 15.72 ± 0.04 µM | 15.4 ± 0.54 µM | 15.6 ± 2.17 µM | COc1ccc(C2=N[C@@H](c3ccc(Cl)cc3)[C@@H](c3ccc(Cl)cc3)N2C(=O)N2CCNC(=O)C2)c(OC(C)C)c1 (racemic) [Nutlin 3] | 35.2 ± 2.76 µM | significantly reduced | – | – | –
– | – | – | – | – | – | – | – | – | CCN(CC)CCCC(C)Nc1ccnc2cc(Cl)ccc12 (stereo not drawn) [Chloroquine] | – | significantly decreased the overall parasitemia | 2.40% | 1.92% | IC90 ([1]; Plasmodium falciparum, D6, 48 h, read-out: IC90 against PfD6 (concentration almost equivalent to IC90)): ~0.05 µM; IC50 ([1]; Plasmodium falciparum, D6, 48 h, read-out: P. falciparum D6 (CQ-sensitive strain) IC50): 0.03 ± 0.001 µM; IC50 ([1]; Plasmodium falciparum, D6, 72 h, read-out: P. falciparum D6 (CQ-sensitive strain) IC50): 0.02 ± 0.004 µM; IC50 ([1]; Plasmodium falciparum, D6, 96 h, read-out: P. falciparum D6 (CQ-sensitive strain) IC50): 0.02 ± 0.001 µM; IC50 ([1]; Plasmodium falciparum, D6, 120 h, read-out: P. falciparum D6 (CQ-sensitive strain) IC50): 0.02 ± 0.001 µM; IC50 ([2]; W2, 48 h, read-out: P. falciparum W2 (CQ-resistant strain) IC50): 0.19 ± 0.004 µM; IC50 ([2]; W2, 72 h, read-out: P. falciparum W2 (CQ-resistant strain) IC50): 0.19 ± 0.007 µM; IC50 ([2]; W2, 96 h, read-out: P. falciparum W2 (CQ-resistant strain) IC50): 0.2 ± 0.001 µM; IC50 ([2]; W2, 120 h, read-out: P. falciparum W2 (CQ-resistant strain) IC50): 0.19 ± 0.002 µM; parasites arrested at ring stage ([4]; 40 and 48 h post-treatment): more than 50%; parasites arrested at ring stage ([4]; 16 h post-treatment): around 50%
~5 µM | 2.17 ± 0.004 µM | 2.93 ± 0.03 µM | 1.41 ± 0.03 µM | 1.46 ± 0.12 µM | 1.86 ± 0.03 µM | 1.74 ± 0.27 µM | 2.28 ± 0.03 µM | 2.02 ± 0.36 µM | c1ccc2c(CCNc3ccc(Nc4ccncc4)cc3)c[nH]c2c1 [JNJ 26854165, Serdemetan] | 22.4 ± 0.56 µM | – | 1.90% | 1.76% | IC50 ([1]; Plasmodium falciparum, D6; 48-120 h; read-out: IC50 against PfD6): < 6 µM; IC50 ([2]; W2, 48-120 h, read-out: IC50 against PfW2): < 6 µM
